Results as given in patent US7795261B2, “Substituted 1-piperidin-4-yl-4-pyrrolidin-3-yl-piperazine derivatives and their use as neurokinin antagonists” (Janssen Pharmaceutica NV, priority 2002, dated 2010).
One block for each compound: values may come before it.

Experiments:
Assay type in all cases: cell-based
NK1 = NK1 (Homo sapiens, UniProt P25103); assay: Signal transduction (ST), intracellular Ca++ (FLIPR), NK1 antagonistic activity; details: read-out: pIC50 NK1 (converted)
Procedure, shortened: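 Antagonist IC50 was fitted by non-linear regression of peak intracellular Ca++ signals measured on FLIPR after agonist challenge. Beforehand, Fluo3-loaded confluent cells received antagonists over a concentration range for 20 min at room temperature in Ca++ Krebs buffer, pH 7.4.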

NK3 = target: T1, NK3 (Homo sapiens, UniProt P29371); assay: Signal transduction (ST), intracellular Ca++ (FLIPR), NK3; details: read-out: pIC50 NK3 (converted)
T1 sequence (P29371 1-465): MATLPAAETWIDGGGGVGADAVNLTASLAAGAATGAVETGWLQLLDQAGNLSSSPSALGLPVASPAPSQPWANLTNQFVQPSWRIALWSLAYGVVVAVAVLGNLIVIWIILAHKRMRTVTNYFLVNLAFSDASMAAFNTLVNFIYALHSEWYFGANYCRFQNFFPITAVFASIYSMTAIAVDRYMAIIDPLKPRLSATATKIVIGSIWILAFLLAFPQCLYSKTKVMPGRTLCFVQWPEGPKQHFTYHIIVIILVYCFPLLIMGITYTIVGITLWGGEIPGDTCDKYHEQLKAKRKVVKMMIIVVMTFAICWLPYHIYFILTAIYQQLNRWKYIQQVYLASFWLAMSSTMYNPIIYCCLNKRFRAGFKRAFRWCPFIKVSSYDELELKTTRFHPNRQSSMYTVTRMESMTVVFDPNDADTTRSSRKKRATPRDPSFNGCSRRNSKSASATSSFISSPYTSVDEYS

NK2 = target: T2, NK2 (Homo sapiens, UniProt P21452); assay: Signal transduction (ST), intracellular Ca++ (FLIPR), NK2; details: read-out: pIC50 NK2 (converted)
T2 sequence (P21452 1-398): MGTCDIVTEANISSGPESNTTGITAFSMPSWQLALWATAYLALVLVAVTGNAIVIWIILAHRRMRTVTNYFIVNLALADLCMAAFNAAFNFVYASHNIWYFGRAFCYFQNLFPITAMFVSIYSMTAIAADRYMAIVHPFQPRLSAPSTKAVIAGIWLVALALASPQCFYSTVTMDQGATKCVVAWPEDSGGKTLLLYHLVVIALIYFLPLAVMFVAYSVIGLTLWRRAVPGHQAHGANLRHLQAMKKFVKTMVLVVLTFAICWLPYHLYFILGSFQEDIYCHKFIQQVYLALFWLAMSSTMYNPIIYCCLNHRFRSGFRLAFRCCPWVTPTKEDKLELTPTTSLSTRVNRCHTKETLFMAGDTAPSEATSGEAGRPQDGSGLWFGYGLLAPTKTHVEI
Method: [The procedure below names another target; the source lists this target under the same test.] This test evaluates in vitro functional NK1 antagonistic activity. For the measurements of intracellular Ca^++ concentrations the cells were grown on 96-well (black wall/transparent bottom) plates from Costar for 2 days until they reached confluence. The cells were loaded with 2 μM Fluo3 in DMEM containing 0.1% BSA and 2.5 mM probenecid for 1 h at 37° C. They were washed 3× with a Krebs buffer (140 mM NaCl, 1 mM MgCl2×6H2O, 5 mM KCl, 10 mM glucose, 5 mM HEPES; 1.25 mM CaCl2; pH 7.4) containing 2.5 mM probenecid and 0.1% BSA (Ca^++-buffer). The cells were preincubated with a concentration range of antagonists for 20 min at RT and Ca^++-signals after addition of the agonists were measured in a Fluorescence Image Plate Reader (FLIPR from Molecular Devices, Crawley, England). The peak of the Ca^++-transient was considered as the relevant signal and the mean values of corresponding wells were analysed as described below.
The sigmoidal dose response curves were analysed by computerised curve-fitting, using the GraphPad Program. […] For antagonist responses the IC50-value was calculated using non-linear regression.
The last columns indicates—without being limited therefore—for which the compounds might be most suitable. Of course, since for some neurokinin receptors no data was determined, it is obvious that these compounds might be attributed to another suitable use.

NK1, sequence (P25103 whole entry): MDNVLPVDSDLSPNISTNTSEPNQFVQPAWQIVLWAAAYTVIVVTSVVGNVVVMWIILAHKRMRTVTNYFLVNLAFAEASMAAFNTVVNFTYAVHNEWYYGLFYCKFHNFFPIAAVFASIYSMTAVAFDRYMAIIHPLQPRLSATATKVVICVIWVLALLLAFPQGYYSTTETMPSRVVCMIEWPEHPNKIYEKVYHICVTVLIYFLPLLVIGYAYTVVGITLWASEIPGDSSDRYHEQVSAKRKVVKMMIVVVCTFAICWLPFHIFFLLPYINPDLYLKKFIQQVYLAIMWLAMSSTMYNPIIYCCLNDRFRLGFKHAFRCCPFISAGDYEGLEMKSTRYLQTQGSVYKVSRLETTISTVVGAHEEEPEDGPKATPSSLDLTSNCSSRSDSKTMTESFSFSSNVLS

- IC50 (NK1): 10 nM
- IC50 (NK3): 501 nM
- IC50 (NK2): 1000 nM
Compound: O=C(C1CC1)N1CCC(N2CCN([C@H]3CCN(C(=O)c4cc(C(F)(F)F)cc(C(F)(F)F)c4)[C@H](Cc4ccc(Cl)c(Cl)c4)C3)CC2)C1 (relative stereo) [Compound 162]

- IC50 (NK1): 15.8 nM
- IC50 (NK3): 398 nM
- IC50 (NK2): 79.4 nM
Compound: O=C(c1ccccc1Cl)N1CCC(N2CCN([C@H]3CCN(C(=O)c4cc(C(F)(F)F)cc(C(F)(F)F)c4)[C@H](Cc4ccc(Cl)c(Cl)c4)C3)CC2)C1 (relative stereo) [Compound 164]

- IC50 (NK1): 6.31 nM
- IC50 (NK3): 200 nM
- IC50 (NK2): 1000 nM
Compound: O=C(c1ccccc1Cl)N1CCC(N2CCN(C3CCN(C(=O)c4cc(C(F)(F)F)cc(C(F)(F)F)c4)C(Cc4ccc(F)c(F)c4)C3)CC2)C1 (single isomer, unassigned) [Compound 211]

- IC50 (NK1): 6.31 nM
- IC50 (NK3): 126 nM
- IC50 (NK2): 3160 nM
Compound: O=C(c1cccs1)N1CCC(N2CCN(C3CCN(C(=O)c4cc(C(F)(F)F)cc(C(F)(F)F)c4)C(Cc4ccc(F)c(F)c4)C3)CC2)C1 (single isomer, unassigned) [Compound 232]

- IC50 (NK1): 6.31 nM
- IC50 (NK3): 158 nM
- IC50 (NK2): 1260 nM
Compound: O=C(c1ccsc1)N1CCC(N2CCN(C3CCN(C(=O)c4cc(C(F)(F)F)cc(C(F)(F)F)c4)C(Cc4ccc(F)c(F)c4)C3)CC2)C1 (single isomer, unassigned) [Compound 238]

- IC50 (NK1): 10 nM
- IC50 (NK3): 251 nM
- IC50 (NK2): 1000 nM
Compound: O=C(c1c(Cl)cccc1Cl)N1CCC(N2CCN(C3CCN(C(=O)c4cc(C(F)(F)F)cc(C(F)(F)F)c4)C(Cc4ccc(F)c(F)c4)C3)CC2)C1 (single isomer, unassigned) [Compound 239]

- IC50 (NK1): 10 nM
- IC50 (NK3): 501 nM
- IC50 (NK2): 1000 nM
Compound: O=C(C1CC1)N1CCC(N2CCN(C3CCN(C(=O)c4cc(C(F)(F)F)cc(C(F)(F)F)c4)C(Cc4ccc(F)c(F)c4)C3)CC2)C1 (single isomer, unassigned) [Compound 252]

- IC50 (NK1): 5.01 nM
- IC50 (NK3): 501 nM
- IC50 (NK2): 398 nM
Compound: Cc1nnsc1C(=O)N1CCC(N2CCN(C3CCN(C(=O)c4cc(C(F)(F)F)cc(C(F)(F)F)c4)C(Cc4ccc(F)c(F)c4)C3)CC2)C1 (single isomer, unassigned) [Compound 253]

- IC50 (NK1): 10 nM
- IC50 (NK3): 501 nM
- IC50 (NK2): 251 nM
Compound: O=C(c1cccs1)N1CCC(N2CCN(C3CCN(C(=O)c4cc(C(F)(F)F)cc(C(F)(F)F)c4)C(Cc4ccc(F)c(F)c4)C3)CC2)C1 (single isomer, unassigned) [Compound 254]

- IC50 (NK1): 10 nM
- IC50 (NK3): 631 nM
- IC50 (NK2): 316 nM
Compound: O=C(c1ccsc1)N1CCC(N2CCN(C3CCN(C(=O)c4cc(C(F)(F)F)cc(C(F)(F)F)c4)C(Cc4ccc(F)c(F)c4)C3)CC2)C1 (single isomer, unassigned) [Compound 257]

- IC50 (NK1): 12.6 nM
- IC50 (NK3): 398 nM
- IC50 (NK2): 501 nM
Compound: O=C(c1ccoc1)N1CCC(N2CCN(C3CCN(C(=O)c4cc(C(F)(F)F)cc(C(F)(F)F)c4)C(Cc4ccc(F)c(F)c4)C3)CC2)C1 (single isomer, unassigned) [Compound 258]

- IC50 (NK1): 12.6 nM
- IC50 (NK3): 501 nM
- IC50 (NK2): 2000 nM
Compound: O=C(c1cnccn1)N1CCC(N2CCN(C3CCN(C(=O)c4cc(C(F)(F)F)cc(C(F)(F)F)c4)C(Cc4ccc(F)c(F)c4)C3)CC2)C1 (single isomer, unassigned) [Compound 259]

- IC50 (NK1): 50.1 nM
- IC50 (NK2): 2510 nM
Compound: O=C(c1cccnc1)N1CCC(N2CCN([C@H]3CCN(C(=O)c4cc(C(F)(F)F)cc(C(F)(F)F)c4)[C@H](Cc4ccccc4)C3)CC2)C1 (some centres unmarked) [Compound 28]

The next lines start with the compound.

Compound: O=C(c1ccoc1)N1CCC(N2CCN(C3CCN(C(=O)c4cc(C(F)(F)F)cc(C(F)(F)F)c4)C(Cc4ccccc4)C3)CC2)C1 (single isomer, unassigned) [Compound 32]
- IC50 (NK1): 12.6 nM
- IC50 (NK3): 200 nM
- IC50 (NK2): 5010 nM

Compound: O=C(c1ccoc1)N1CCC(N2CCN(C3CCN(C(=O)c4cc(C(F)(F)F)cc(C(F)(F)F)c4)C(Cc4ccccc4)C3)CC2)C1 (single isomer, unassigned) [Compound 33]
- IC50 (NK1): 15.8 nM
- IC50 (NK3): 501 nM
- IC50 (NK2): 3980 nM

Compound: O=C(c1ccsc1)N1CCC(N2CCN(C3CCN(C(=O)c4cc(C(F)(F)F)cc(C(F)(F)F)c4)C(Cc4ccccc4)C3)CC2)C1 (single isomer, unassigned) [Compound 39]
- IC50 (NK1): 15.8 nM
- IC50 (NK3): 398 nM
- IC50 (NK2): 3160 nM

Compound: O=C(c1ccsc1)N1CCC(N2CCN(C3CCN(C(=O)c4cc(C(F)(F)F)cc(C(F)(F)F)c4)C(Cc4ccccc4)C3)CC2)C1 (single isomer, unassigned) [Compound 40]
- IC50 (NK1): 7.94 nM
- IC50 (NK3): 126 nM
- IC50 (NK2): 2510 nM

Compound: O=C(C1CC1)N1CCC(N2CCN(C3CCN(C(=O)c4cc(C(F)(F)F)cc(C(F)(F)F)c4)C(Cc4ccccc4)C3)CC2)C1 (single isomer, unassigned) [Compound 71]
- IC50 (NK1): 20 nM
- IC50 (NK3): 794 nM
- IC50 (NK2): 5010 nM

Compound: O=C(c1ccccc1Cl)N1CCC(N2CCN(C3CCN(C(=O)c4cc(C(F)(F)F)cc(C(F)(F)F)c4)C(Cc4ccccc4)C3)CC2)C1 (single isomer, unassigned) [Compound 159]
- IC50 (NK1): 20 nM
- IC50 (NK3): 631 nM
- IC50 (NK2): 6310 nM

Compound: O=C(C1CCOC1)N1CCC(N2CCN(C3CCN(C(=O)c4cc(C(F)(F)F)cc(C(F)(F)F)c4)C(Cc4ccccc4)C3)CC2)C1 (single isomer, unassigned) [Compound 216]
- IC50 (NK1): 10 nM
- IC50 (NK3): 1580 nM
- IC50 (NK2): 5010 nM

Compound: O=C(C1CCOC1)N1CCC(N2CCN(C3CCN(C(=O)c4cc(C(F)(F)F)cc(C(F)(F)F)c4)C(Cc4ccc(Cl)c(Cl)c4)C3)CC2)C1 (single isomer, unassigned) [Compound 249]
- IC50 (NK1): 50.1 nM
- IC50 (NK3): 5010 nM
- IC50 (NK2): 5010 nM

Compound: Cn1cc(C(=O)N2CCC(N3CCN([C@H]4CCN(C(=O)c5cc(C(F)(F)F)cc(C(F)(F)F)c5)[C@H](Cc5ccccc5)C4)CC3)C2)ccc1=O (some centres unmarked) [Compound 29]
- IC50 (NK1): 79.4 nM
- IC50 (NK2): 2000 nM

Compound: O=C(c1cc(C(F)(F)F)cc(C(F)(F)F)c1)N1CC[C@H](N2CCN([C@@H]3CCNC3)CC2)C[C@H]1Cc1ccc(Cl)c(Cl)c1 [Compound 262]
- IC50 (NK1): 6.31 nM
- IC50 (NK2): 501 nM

Compound: O=C(C1CCCCN1)N1CCC(N2CCN(C3CCN(C(=O)c4cc(C(F)(F)F)cc(C(F)(F)F)c4)C(Cc4ccccc4)C3)CC2)C1 (centres unmarked) [Compound 294]
- IC50 (NK1): 20 nM
- IC50 (NK2): 7940 nM

Compound: COc1ccc(C(O)C(=O)N2CCC(N3CCN([C@H]4CCN(C(=O)c5cc(C(F)(F)F)cc(C(F)(F)F)c5)[C@H](Cc5ccccc5)C4)CC3)C2)cc1 (some centres unmarked) [Compound 333]
- IC50 (NK1): 20 nM
- IC50 (NK2): 2510 nM

Compound: O=C(c1cc(C(F)(F)F)cc(C(F)(F)F)c1)N1CCC(N2CCN(C3CCN(S(=O)(=O)c4cc(CCOCc5ccccc5)cs4)C3)CC2)CC1Cc1ccccc1 (centres unmarked) [Compound 335]
- IC50 (NK1): 316 nM
- IC50 (NK2): 1000 nM

Compound: O=C(c1cc(C(F)(F)F)cc(C(F)(F)F)c1)N1CC[C@H](N2CCN(C3CCN(S(=O)(=O)c4ccc(CCOCc5ccccc5)s4)C3)CC2)C[C@H]1Cc1ccccc1 (some centres unmarked) [Compound 336]
- IC50 (NK1): 158 nM
- IC50 (NK2): 1000 nM

Compound: CC(C)N/C(=N\C#N)N1CCC(N2CCN(C3CCN(C(=O)c4cc(C(F)(F)F)cc(C(F)(F)F)c4)C(Cc4ccccc4)C3)CC2)C1 (centres unmarked) [Compound 344]
- IC50 (NK1): 20 nM
- IC50 (NK2): 3980 nM

Compound: O=C(c1cc(C(F)(F)F)cc(C(F)(F)F)c1)N1CC[C@H](N2CCN(C3CCN(S(=O)(=O)c4ccc(COCc5ccccc5)s4)C3)CC2)C[C@H]1Cc1ccccc1 (some centres unmarked) [Compound 345]
- IC50 (NK1): 200 nM
- IC50 (NK2): 501 nM

Compound: O=C(c1cc(C(F)(F)F)cc(C(F)(F)F)c1)N1CC[C@H](N2CCN(C3CCN(S(=O)(=O)c4occc4CCOCc4ccccc4)C3)CC2)C[C@H]1Cc1ccccc1 (some centres unmarked) [Compound 410]
- IC50 (NK1): 50.1 nM
- IC50 (NK2): 1260 nM
